Measurements taken from patent publication US9862713B2, “Substituted bicyclic heteroaryl compounds as RXR agonists” (CONNEXIOS LIFE SCIENCES PVT. LTD., priority 2014, dated 2018).

Tested on: hRXR α, β, or γ
Experiment: Transactivation assay (RARE-Luc dual luciferase reporter in HEK-293 cells), activity relative to LG268
Type: cell-based, human
Settings: compound at 300 nM, 24 h; luciferase activity expressed relative to LG268
Outline: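 HEK-293 cells co-transfected with hRXR α, β or γ expression vector, RARE-firefly luciferase and renilla luciferase; 24 h later treated with agonist (100 nM, 300 nM, 1 uM) for 24 h. Firefly signal normalized to renilla; activity expressed relative to the RXR agonist LG268.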

Question: `CC1(C)CCC(C)(C)c2sc(N(c3ccc(C(=O)O)cc3)c3ccccn3)nc21` [Compound 101, 4-[pyridin-2-yl(4,4,7,7-tetramethyl-4,5,6,7-tetrahydro-1,3-benzothiazol-2-yl)amino]benzoic acid] was tested. Which “Activity at 300 nM” value did it give?
Answer: *** (>0.4 and <0.5)

Question: `Cc1c(N(c2ccccc2)c2ccc(C(=O)O)cc2)sc2c1C(C)(C)CCC2(C)C` [Compound 102, 4-[(3,4,4,7,7-pentamethyl-4,5,6,7-tetrahydro-1-benzothiophen-2-yl) (phenyl)amino]benzoic acid] was tested. Which “Activity at 300 nM” value did it give?
Answer: ***** (>0.6)

Question: For `Cc1c(N(c2ccc(C(=O)O)cc2)c2ccccn2)sc2c1C(C)(C)CCC2(C)C` [Compound 103, 4-[(3,4,4,7,7-pentamethyl-4,5,6,7-tetrahydro-1-benzothiophen-2-yl) (pyridin-2-yl)amino]benzoic acid], which “Activity at 300 nM” value is on record?
Answer: ***** (>0.6)

Question: `Cc1c(N(Cc2ccccn2)c2ccc(C(=O)O)cc2)sc2c1C(C)(C)CCC2(C)C` [Compound 104, 4-[(3,4,4,7,7-pentamethyl-4,5,6,7-tetrahydro-1-benzothiophen-2-yl) (pyridin-2-ylmethyl)amino]benzoic acid] was tested. Which “Activity at 300 nM” value did it give?
Answer: * (<0.3)

Question: Which “Activity at 300 nM” value does the source give for `CC1(C)CCC(C)(C)c2sc(N(CC3CC3)c3ccc(CC(=O)O)cc3)nc21` [Compound 105, {4-[(cyclopropylmethyl) (4,4,7,7-tetramethyl-4,5,6,7-tetrahydro-1,3-benzothiazol-2-yl)amino]phenyl}acetic acid] here?
Answer: ***** (>0.6)

Question: How did the “Activity at 300 nM” value turn out when `CC1(C)CCC(C)(C)c2sc(N(CC3CC3)c3ccc(CCC(=O)O)cc3)nc21` [Compound 106, 3-{4-[(cyclopropylmethyl) (4,4,7,7-tetramethyl-4,5,6,7-tetrahydro-1,3-benzothiazol-2-yl)amino]phenyl}propanoic acid] was run?
Answer: ***** (>0.6)

Question: For `CC1(C)CCC(C)(C)c2sc(N(CC3CC3)c3ccc(/C=C/C(=O)O)cc3)nc21` [Compound 107], which “Activity at 300 nM” value is on record?
Answer: ***** (>0.6)

Question: `CC1(C)CCC(C)(C)c2sc(N(CC3CC3)c3ccc(C4CC4C(=O)O)cc3)nc21` (stereo not drawn) [Compound 108, 2-{4-[(cyclopropylmethyl) (4,4,7,7-tetramethyl-4,5,6,7-tetrahydro-1,3-benzothiazol-2-yl)amino]phenyl}cyclopropanecarboxylic acid] was tested. Which “Activity at 300 nM” value did it give?
Answer: ***** (>0.6)

Tested on: HL-60 promyelocytic leukemia cell line
Experiment: HL-60 differentiation (NBT reduction)
Type: cell-based
Settings: 72 h culture, NBT reduction at 540 nm
Protocol: Progression of promyelocytic leukemia can be abrogated by their differentiation. […] In order to estimate the differentiating ability of compound-40, HL-60 promyelocytic leukemia cell line was used as an in vitro model of the disease. HL-60 cells were cultured for 72 h as either control or under treatment as mentioned. After 72 h of culture, cells were exposed to nitro blue tetrazolium (NBT) solution containing phorbol myristate acetate (PMA) for 1 h at 37° C. Differentiated cells have increased oxidative burst potential which reduces NBT. Levels of reduced NBT were measured at 540 nm absorption.

Question: For `CC1=C(/C=C/C(C)=C/C=C/C(C)=C/C(=O)O)C(C)(C)CCC1` [ATRA, all transretinoic acid, reference compound], which HL-60 cells differentiation is on record?
Answer: induced differentiation
